Values joined by “and” are separate entries in the source; they are usually repeats but may differ in a detail not shown here. Equal values may be shown once. Toxic doses and inconclusive results are not listed. No stated cut-off is given here; in the data, active means T/C of 150% or more; inactive means T/C below 125%.
Tested on: L1210 leukemia ip in BDF1 mice, survival T/C
Test: NCI In Vivo Anticancer Drug Screen. Data for tumor model L1210 Leukemia (intraperitoneal) in B6D2F1 (BDF1) mice
Details: endpoint: mean survival time, higher = longer survival
In short: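 Survival endpoint. Drug-treated group vs vehicle group, expressed as T divided by C. Tumor passaged by transplantation.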

[1] = dose: 6.25 mg/kg/injection, schedule: Q01DX009 (ip), vehicle: saline
[2] = dose: 50.0 mg/kg/injection, schedule: Q01DX009 (ip), vehicle: saline
[3] = dose: 100.0 mg/kg/injection, schedule: Q01DX009 (ip), vehicle: saline
[4] = dose: 100.0 mg/kg/injection, schedule: Q04DX003 (ip), vehicle: saline
[5] = dose: 100.0 mg/kg/injection, schedule: Q04DX002 (ip), vehicle: Klucel (hydroxypropylcellulose) (HPC)
[6] = dose: 200.0 mg/kg/injection, schedule: Q04DX002 (ip), vehicle: Klucel (hydroxypropylcellulose) (HPC)
[7] = dose: 100.0 mg/kg/injection, schedule: Q01DX001 (ip), vehicle: saline
[8] = dose: 200.0 mg/kg/injection, schedule: Q01DX001 (ip), vehicle: saline
[9] = dose: 400.0 mg/kg/injection, schedule: Q01DX001 (ip), vehicle: saline
[10] = dose: 100.0 mg/kg/injection, schedule: Q01DX009 (ip), vehicle: saline with Tween-80
[11] = dose: 200.0 mg/kg/injection, schedule: Q01DX009 (ip), vehicle: saline with Tween-80
[12] = dose: 100.0 mg/kg/injection, schedule: Q01DX001 (ip), vehicle: saline with Tween-80
[13] = dose: 200.0 mg/kg/injection, schedule: Q01DX001 (ip), vehicle: saline with Tween-80
[14] = dose: 400.0 mg/kg/injection, schedule: Q01DX001 (ip), vehicle: saline with Tween-80
[15] = dose: 100.0 mg/kg/injection, schedule: Q01DX001 (ip), vehicle: carboxymethylcellulose (CMC)
[16] = dose: 200.0 mg/kg/injection, schedule: Q01DX001 (ip), vehicle: carboxymethylcellulose (CMC)
[17] = dose: 200.0 mg/kg/injection, schedule: Q04DX003 (ip), vehicle: saline
[18] = dose: 400.0 mg/kg/injection, schedule: Q04DX003 (ip), vehicle: saline
[19] = dose: 100.0 mg/kg/injection, schedule: Q04DX003 (ip), vehicle: saline with Tween-80
[20] = dose: 200.0 mg/kg/injection, schedule: Q04DX003 (ip), vehicle: saline with Tween-80
[21] = dose: 400.0 mg/kg/injection, schedule: Q04DX003 (ip), vehicle: saline with Tween-80
[22] = dose: 400.0 mg/kg/injection, schedule: Q04DX002 (ip), vehicle: Klucel (hydroxypropylcellulose) (HPC)

Measured: T/C

CN(C)CCCN1Cc2ccccc2Cc2ccccc21
inactive: [1] 106 % of control | dose: 12.5 mg/kg/injection, schedule: Q01DX009 (ip), vehicle: saline 88 % of control | dose: 25.0 mg/kg/injection, schedule: Q01DX009 (ip), vehicle: saline 97 % of control | dose: 25.0 mg/kg/injection, schedule: Q04DX003 (ip), vehicle: saline 97 % of control | [2] 104 % of control | dose: 50.0 mg/kg/injection, schedule: Q04DX003 (ip), vehicle: saline 108 % of control | [3] 100 % of control | [4] 108 % of control

CCCCCCCCC(=O)N(C(C)C)C(C)C
inactive: dose: 100.0 mg/kg/injection, schedule: Q01DX009 (ip), vehicle: carboxymethylcellulose (CMC) 93 % of control and 102 % of control | dose: 100.0 mg/kg/injection, schedule: Q04DX002 (ip), vehicle: carboxymethylcellulose (CMC) 98 % of control and 101 % of control | dose: 200.0 mg/kg/injection, schedule: Q01DX009 (ip), vehicle: carboxymethylcellulose (CMC) 93 % of control and 96 % of control | dose: 200.0 mg/kg/injection, schedule: Q04DX002 (ip), vehicle: carboxymethylcellulose (CMC) 95 % of control and 92 % of control | dose: 400.0 mg/kg/injection, schedule: Q01DX009 (ip), vehicle: carboxymethylcellulose (CMC) 92 % of control | dose: 400.0 mg/kg/injection, schedule: Q04DX002 (ip), vehicle: carboxymethylcellulose (CMC) 87 % of control and 92 % of control

CC(=O)NN(N=O)C(C)c1ccccc1 (stereo not given)
inactive: [5] 108 % of control | [6] 105 % of control

CCCCN(C(=O)O)P(=O)(OCC)OCC
inactive: [2] 101 % of control | [3] 103 % of control | dose: 200.0 mg/kg/injection, schedule: Q01DX009 (ip), vehicle: saline 109 % of control | dose: 400.0 mg/kg/injection, schedule: Q01DX009 (ip), vehicle: saline 97 % of control

O=C1CCCCC(=O)OCCC1
inactive: [7] 93 % of control | [8] 98 % of control | [9] 88 % of control

Cc1cc([N+](=O)[O-])ccn1
inactive: [10] 94 % of control | [11] 93 % of control

CCOC(=O)c1ccc(NC(=S)NC(=O)c2ccc(Cl)cc2Cl)cc1
inactive: [11] 88 % of control | dose: 400.0 mg/kg/injection, schedule: Q01DX009 (ip), vehicle: saline with Tween-80 88 % of control

O=[N+]([O-])c1cccc(CNc2ccccc2)c1
inactive: [12] 98 % of control | [13] 95 % of control | [14] 93 % of control

CN1CCC(Br)(C(=O)c2ccccc2)CC1
inactive: dose: 75.0 mg/kg/injection, schedule: Q01DX001 (ip), vehicle: saline 101 % of control | dose: 150.0 mg/kg/injection, schedule: Q01DX001 (ip), vehicle: saline 93 % of control

COc1ccc(NC2=CC(=O)C(=O)c3ccccc32)nn1
inactive: [7] 91 % of control | [8] 89 % of control | [9] 95 % of control

[Br][Pb]([c]1ccccc1)([c]1ccccc1)[c]1ccccc1
inactive: dose: 1.5 mg/kg/injection, schedule: Q01DX009 (ip), vehicle: saline 103 % of control | dose: 1.56 mg/kg/injection, schedule: Q04DX003 (ip), vehicle: acetone 93 % of control | dose: 3.12 mg/kg/injection, schedule: Q01DX009 (ip), vehicle: saline 100 % of control | dose: 3.12 mg/kg/injection, schedule: Q04DX003 (ip), vehicle: acetone 91 % of control | [1] 92 % of control | dose: 6.25 mg/kg/injection, schedule: Q04DX003 (ip), vehicle: acetone 88 % of control

CCCCC(CCCC)(S(=O)(=O)CC)S(=O)(=O)CC
inactive: [15] 104 % of control | dose: 177.6 mg/kg/injection, schedule: Q01DX001 (ip), vehicle: carboxymethylcellulose (CMC) 94 % of control and 104 % of control | [16] 89 % of control | dose: 266.8 mg/kg/injection, schedule: Q01DX001 (ip), vehicle: carboxymethylcellulose (CMC) 98 % of control and 88 % of control | dose: 600.0 mg/kg/injection, schedule: Q01DX001 (ip), vehicle: carboxymethylcellulose (CMC) 98 % of control and 92 % of control

CN(C)c1c(-c2ccc(Cl)cc2)cc(-c2ccccc2)[nH]c1=O
inactive: [15] 97 % of control | dose: 100.0 mg/kg/injection, schedule: Q01DX009 (ip), vehicle: acetone 95 % of control | [4] 89 % of control | [16] 91 % of control | dose: 200.0 mg/kg/injection, schedule: Q01DX009 (ip), vehicle: acetone 98 % of control | [17] 89 % of control | dose: 400.0 mg/kg/injection, schedule: Q01DX001 (ip), vehicle: carboxymethylcellulose (CMC) 91 % of control | dose: 400.0 mg/kg/injection, schedule: Q01DX009 (ip), vehicle: acetone 93 % of control | [18] 87 % of control

O=C1CCC(=O)N1CCCO
inactive: [4] 107 % of control | [17] 100 % of control | [18] 104 % of control

Cc1cn(CC(=O)c2c[nH]c3ccccc23)c(=O)[nH]c1=O
inactive: dose: 100.0 mg/kg/injection, schedule: Q04DX002 (ip), vehicle: saline with Tween-80 101 % of control | dose: 200.0 mg/kg/injection, schedule: Q04DX002 (ip), vehicle: saline with Tween-80 101 % of control | dose: 400.0 mg/kg/injection, schedule: Q04DX002 (ip), vehicle: saline with Tween-80 93 % of control

CC1=NN(c2cccc(Cl)c2)C(=O)C1
inactive: dose: 50.0 mg/kg/injection, schedule: Q04DX003 (ip), vehicle: saline with Tween-80 105 % of control | [10] 93 % of control | [19] 94 % of control | [11] 106 % of control | [20] 96 % of control and 92 % of control | [21] 94 % of control

CC(C)(C)OC(=O)NC(Cc1ccccc1)C(=O)NN (stereo not given)
inactive: [5] 108 % of control | [6] 97 % of control | [22] 108 % of control

Cc1nc(N)[nH]c(=O)c1CCC(C)C
inactive: [5] 93 % of control | [6] 100 % of control | [22] 96 % of control

CCC(CO)NC(=O)/C=C/c1ccc(Cl)cc1 (stereo not given)
inactive: [12] 101 % of control | [19] 110 % of control | [13] 100 % of control | [20] 108 % of control | [14] 92 % of control | [21] 98 % of control

O=C(N=C1SCCS1)Nc1cccc(Cl)c1
inactive: [5] 100 % of control | [6] 95 % of control | [22] 110 % of control

[N-]=[N+]=Nc1ccc2c(=O)c3ccccc3[nH]c2c1
inactive: dose: 100.0 mg/kg/injection, schedule: Q04DX003 (ip), vehicle: acetone 89 % of control | dose: 200.0 mg/kg/injection, schedule: Q04DX003 (ip), vehicle: acetone 98 % of control | dose: 400.0 mg/kg/injection, schedule: Q04DX003 (ip), vehicle: acetone 96 % of control

Source: PubChem BioAssay AID248 (DTP/NCI, 2004)
